“And” between values parts separate entries of the source, which are not always exact repeats. Identical values can stand only once. Inconclusive results and toxic doses are left out. Rule for the calls: active = survival T/C of 150% or more; inactive = T/C below 125% in these data.
Tested on: P388 leukemia ip, CD2F1 mice, survival T/C
Test: NCI In Vivo Anticancer Drug Screen. Data for tumor model P388 Leukemia (intraperitoneal) in CD2F1 (CDF1) mice
Conditions: endpoint: median survival time, higher = longer survival
Outline: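 Mice carrying the transplanted tumor received test compound or vehicle. Survival was recorded in each group, and the value is the treated-group measurement divided by that of the vehicle-treated control group.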

[1] = dose: 50.0 mg/kg/injection, schedule: Q01DX005 (ip), vehicle: saline with Tween-80
[2] = dose: 100.0 mg/kg/injection, schedule: Q01DX005 (ip), vehicle: saline with Tween-80
[3] = dose: 200.0 mg/kg/injection, schedule: Q01DX005 (ip), vehicle: saline with Tween-80
[4] = dose: 60.0 mg/kg/injection, schedule: Q01DX005 (ip), vehicle: saline with Tween-80
[5] = dose: 120.0 mg/kg/injection, schedule: Q01DX005 (ip), vehicle: saline with Tween-80
[6] = dose: 240.0 mg/kg/injection, schedule: Q01DX005 (ip), vehicle: saline with Tween-80
[7] = dose: 12.5 mg/kg/injection, schedule: Q01DX009 (ip), vehicle: saline with Tween-80
[8] = dose: 25.0 mg/kg/injection, schedule: Q01DX009 (ip), vehicle: saline with Tween-80
[9] = dose: 50.0 mg/kg/injection, schedule: Q01DX009 (ip), vehicle: saline with Tween-80

Measured: T/C

C/C(N=NC(=S)N1CC(C)OC(C)C1)=C1\C=CC=CN1O (stereo unspecified)
inactive: [1] 111 % of control | [2] 104 % of control | [3] 106 % of control

NCc1ccccc1
inactive: dose: 50.0 mg/kg/injection, schedule: Q01DX009 (ip), vehicle: saline 103 % of control and 95 % of control | dose: 100.0 mg/kg/injection, schedule: Q01DX009 (ip), vehicle: saline 101 % of control and 109 % of control

CN1C(=O)N(C)C2CC(=O)c3c(ccc4c3ncn4C)N2C1=O (stereo unspecified)
inactive: dose: 60.0 mg/kg/injection, schedule: Q01DX005 (ip), vehicle: Klucel (hydroxypropylcellulose) (HPC) 104 % of control | dose: 120.0 mg/kg/injection, schedule: Q01DX005 (ip), vehicle: Klucel (hydroxypropylcellulose) (HPC) 108 % of control | dose: 240.0 mg/kg/injection, schedule: Q01DX005 (ip), vehicle: Klucel (hydroxypropylcellulose) (HPC) 114 % of control

CCOc1ccc(/C=N/NC(=O)c2c(-c3ccccc3)noc2C)cc1
inactive: [1] 86 % of control | [2] 91 % of control | [3] 97 % of control

Cc1ccc(/C=C/C(=O)C(CN(C)C)CN(C)C)cc1
inactive: dose: 1.56 mg/kg/injection, schedule: Q01DX005 (ip), vehicle: saline 100 % of control | dose: 3.12 mg/kg/injection, schedule: Q01DX005 (ip), vehicle: saline 106 % of control

C1CCC2CC3CCCCN3COC2CC1 (stereo unspecified)
inactive: dose: 50.0 mg/kg/injection, schedule: Q01DX005 (ip), vehicle: saline 116 % of control | dose: 100.0 mg/kg/injection, schedule: Q01DX005 (ip), vehicle: saline 118 % of control

COC(=O)c1cccc2c([N+](=O)[O-])c(NC(C)=O)cc(C(=O)OC)c12
inactive: [4] 100 % of control | [5] 104 % of control | [6] 100 % of control

O=[N+]([O-])c1ccc(-c2sc(-c3ccccc3)nc2O)cc1
inactive: [7] 100 % of control | [8] 98 % of control | [9] 91 % of control and 94 % of control | dose: 200.0 mg/kg/injection, schedule: Q01DX009 (ip), vehicle: saline with Tween-80 88 % of control

O=c1[nH]c(=O)n(C2OC(CCl)C(O)C2O)cc1F (stereo unspecified)
inactive: dose: 30.0 mg/kg/injection, schedule: Q04DX002 (ip), vehicle: saline 99 % of control | dose: 43.0 mg/kg/injection, schedule: Q04DX002 (ip), vehicle: water 104 % of control | dose: 60.0 mg/kg/injection, schedule: Q04DX002 (ip), vehicle: saline 102 % of control | dose: 86.0 mg/kg/injection, schedule: Q04DX002 (ip), vehicle: water 106 % of control | dose: 120.0 mg/kg/injection, schedule: Q04DX002 (ip), vehicle: saline 116 % of control | dose: 172.0 mg/kg/injection, schedule: Q04DX002 (ip), vehicle: water 113 % of control | dose: 240.0 mg/kg/injection, schedule: Q04DX002 (ip), vehicle: saline 109 % of control | dose: 344.0 mg/kg/injection, schedule: Q04DX002 (ip), vehicle: water 113 % of control

CC(C)N(Cc1ccccc1)CC(O)c1ccc(Cl)cc1 (stereo unspecified)
inactive: [7] 104 % of control | [8] 108 % of control | [9] 100 % of control and 108 % of control | dose: 100.0 mg/kg/injection, schedule: Q01DX009 (ip), vehicle: saline with Tween-80 95 % of control

Cc1noc(NC(=O)Nc2ccccc2F)c1C#N
inactive: [1] 91 % of control | [2] 100 % of control

CC(C)(C)S.[Ge]
inactive: dose: 7.5 mg/kg/injection, schedule: Q01DX009 (ip), vehicle: saline with Tween-80 106 % of control | dose: 15.0 mg/kg/injection, schedule: Q01DX009 (ip), vehicle: saline with Tween-80 107 % of control | dose: 30.0 mg/kg/injection, schedule: Q01DX009 (ip), vehicle: saline with Tween-80 103 % of control

N=C(N)SCc1ccc(CSC(=N)N)s1
inactive: dose: 7.5 mg/kg/injection, schedule: Q01DX009 (ip), vehicle: saline 107 % of control | dose: 15.0 mg/kg/injection, schedule: Q01DX009 (ip), vehicle: saline 101 % of control | dose: 30.0 mg/kg/injection, schedule: Q01DX009 (ip), vehicle: saline 117 % of control

CCOC(=O)C(CNC(=O)c1ccccc1)(NC(C)=O)C(=O)OCC
inactive: dose: 12.5 mg/kg/injection, schedule: Q01DX009 (ip), vehicle: other 121 % of control | dose: 25.0 mg/kg/injection, schedule: Q01DX009 (ip), vehicle: other 121 % of control | dose: 50.0 mg/kg/injection, schedule: Q01DX009 (ip), vehicle: other 112 % of control | dose: 100.0 mg/kg/injection, schedule: Q01DX009 (ip), vehicle: other 97 % of control | dose: 200.0 mg/kg/injection, schedule: Q01DX009 (ip), vehicle: other 103 % of control

CCN(CC)[P+](C1=C(Cl)C(=O)C(Cl)=C(Cl)C1=O)(N(CC)CC)N(CC)CC
inactive: [7] 105 % of control | [8] 93 % of control | [9] 103 % of control

COCC[P+](c1ccccc1)(c1ccccc1)c1ccccc1
inactive: dose: 1.56 mg/kg/injection, schedule: Q01DX009 (ip), vehicle: water 103 % of control | dose: 3.13 mg/kg/injection, schedule: Q01DX009 (ip), vehicle: water 99 % of control and 109 % of control | dose: 6.25 mg/kg/injection, schedule: Q01DX009 (ip), vehicle: water 112 % of control and 123 % of control | dose: 12.5 mg/kg/injection, schedule: Q01DX009 (ip), vehicle: water 123 % of control | dose: 25.0 mg/kg/injection, schedule: Q01DX009 (ip), vehicle: water 105 % of control and 119 % of control | dose: 50.0 mg/kg/injection, schedule: Q01DX009 (ip), vehicle: water 116 % of control

N#Cc1c(-c2ccc(Cl)cc2)cn2c1[nH]c(=O)c1cc(Br)ccc12
inactive: [4] 99 % of control | [5] 102 % of control | [6] 95 % of control

COC(=O)C12C3c4ccccc4C1C2c1ccccc13 (stereo unspecified)
inactive: dose: 100.0 mg/kg/injection, schedule: Q04DX002 (ip), vehicle: saline 99 % of control | dose: 200.0 mg/kg/injection, schedule: Q04DX002 (ip), vehicle: saline 94 % of control | dose: 400.0 mg/kg/injection, schedule: Q04DX002 (ip), vehicle: saline 96 % of control

Cn1nc(N)c2ncc(-c3ccc(Cl)cc3)nc21
inactive: dose: 100.0 mg/kg/injection, schedule: Q04DX003 (ip), vehicle: saline with Tween-80 90 % of control | dose: 200.0 mg/kg/injection, schedule: Q04DX003 (ip), vehicle: saline with Tween-80 95 % of control

CC(C)c1[nH]c2ccccc2c1Cn1ccnc1
inactive: dose: 50.0 mg/kg/injection, schedule: Q01DX005 (ip), vehicle: Klucel (hydroxypropylcellulose) (HPC) 100 % of control | dose: 100.0 mg/kg/injection, schedule: Q01DX005 (ip), vehicle: Klucel (hydroxypropylcellulose) (HPC) 114 % of control
